Assay results published in patent US8946247B2, “Quinazoline carboxamide azetidines” (Merck Patent GmbH, priority 2010, dated 2015).

Tests used:
P70S6K (T412E mutant) = target: T1, P70S6K (T412E mutant) (Homo sapiens, UniProt P23443, T412E); experiment: p70S6K Enzyme Assay; format: biochemical; settings: 24 μM ATP, 90 min at 25° C., Caliper mobility shift
T1 construct: purchased Millipore
Method: p70S6K inhibitor compounds were diluted and plated in 96 well plates. A reaction mixture including the following components were then added to the compound plate to initiate the enzyme reaction; P70S6K (3 nM, T412E mutant, Millipore) was mixed with 24 μM ATP in an assay buffer containing 100 mM Hepes (pH 7.5), 5 mM MgCl2, 1 mM DTT, 0.015% Brij and 1 μM of the substrate peptide FITC-AHA-AKRRRLSSLRA-OH (derived from the S6 ribosomal protein sequence, FITC=fluorescein isothiocyanate, AHA=6-aminohexanoic acid). The reaction was incubated for 90 min at 25° C., before the addition of 10 mM EDTA to stop the reaction. The proportion of substrate and product (phosphorylated) peptide was analysed on a Caliper Life Sciences Lab Chip 3000, using a pressure of −1.4 psi, and upstream and downstream voltages of −3000 and −700 respectively. Product peaks were resolved before substrate peaks on the resulting chromatograms.
To assess the inhibitory potential of the compounds, IC50-values were determined, as shown in Chemical Synthesis section above.

pS6 MDA-MB-468 = experiment: Cellular Activity Assay (phospho-S6 in MDA-MB-468 cells); format: cell-based; settings: Homo sapiens, 2 hr compound incubation, percent pS6-positive cells
Method: MDA-MB-468 cells were grown in DMEM containing glutamine supplemented with 10% Fetal Bovine Serum (FBS) and 1× antibiotics. Cells were maintained by splitting 1:3 twice a week.
For the assay, cells were plated the evening before at a density of 4000 cells per well in black polyD lysine coated 384 well plates. Cells were incubated overnight (16 to 20 hours) in growth media. Compounds at an appropriate concentration were added to the wells and incubated for 2 hr. Controls included: i) no primary, ii) rabbit isotype, iii) propidium iodide (red) only and iv) anti-phospho-S6 antibody alone (green only). Cells were then fixed in 4% paraformaldehyde for 15-20 minutes at room temperature, then washed 3×80 ul with PBS.
50 ul 10% normal goat serum (NGS) with 0.2% triton X 100 in PBS were added and incubated for 30 to 60 minutes at room temperature. Anti-phospho-S6 antibody was diluted 1:800 2% with NGS in 0.2% TritonX-100 and 30 ul added to appropriate wells. The wells were incubated overnight at 4 degrees Celsius.
Then the wells were washed with 3×80 uL PBS. The secondary green fluorescence labeled antibody (Alexa Fluor® 488 F(ab′)2 fragment goat Anti-rabbit IgG (H+L)), was diluted 1:1500 in 2% NGS with 0.2% TritonX-100, and 30 ul were added to the appropriate wells which were then incubated in the dark at room temperature for 60 minutes. Then they were washed with 4×80 ul PBS. Propidium iodide (1.5 mM stock) was diluted 1:1000 in PBS, and 50 ul were added to the appropriate wells and incubated for 30 minutes at room temperature in the dark. Propidium iodide was not washed out. Plates were read on the Acumen Explorer.
Red and green cell populations were determined using controls. The number of green cells (pS6) and total number of cells (red) were then counted and the percentage of green cells was calculated. Percent positive cell data was plotted on a log scale against concentration of compounds and IC50 values were calculated from dose response curves.

Akt1 = target: T2, Akt1 (Homo sapiens, UniProt P31749); experiment: AKT/PKB Kinase Assay; format: biochemical; settings: His-AKT (Full Length), 160 uM ATP, 90 min at 25 C
T2 construct: 0.1 ng/ul His-AKT (Full Length), (Invitrogen, Part #P2999, Lot #641228C); His; purchased Invitrogen P2999
Method: In order to measure AKT inhibition in the Caliper Life Sciences LC3000, a TTP Mosquito liquid handling instrument was used to place 125 nl of the appropriate concentration of inhibitor in 100% DMSO (for a dose response curve calculation) into each well of a 384-well plate. To this reaction components were added to a final volume of 12.5 ul: • 0.1 ng/ul His-AKT (Full Length), (Invitrogen, Part #P2999, Lot #641228C) • 160 uM ATP (Fluke, 02055) • 1 mM DTT (Sigma, D0632) • 1 mM MgCl2 (Sigma, M1028) • 1 uM substrate peptide (sequence FITC-AHA-GRPRTSSFAEG-NH2), synthesized by Tufts Peptide Synthesis service. • 100 mM HEPES pH 7.5 (Calbiochem, 391338) • 0.015% Brij-35 (Sigma, B4184)
(§1) The reaction was incubated for 90 min at 25 C, and then stopped by the addition of 70 ul of Stop buffer (100 mM HEPES pH 7.5, 0.015% Brij-35, 10 mM EDTA (Sigma, E7889)).
The plate was read on a Caliper LC 3000 in an Off-Chip mobility shift assay format, using the following parameters for a 12-sipper chip: screening pressure −2.3 psi, upstream voltage −500, and downstream voltage −3000.
These conditions cause unphosphorylated substrate and phosphorylated product peptide to resolve as separate peaks allowing direct measurement of percentage of conversion of substrate to product. The percent conversion was plotted against concentration of inhibitor to produce a sigmoidal dose response curve, from which an IC50 was calculated.

Aurora B = target: T3, Aurora B (Homo sapiens, UniProt Q96GD4); experiment: Aurora B Kinase Assay; format: biochemical; settings: GST-Aurora B (1-344), 10 uM ATP, 90 min at 25 C
T3 construct: GST-Aurora B (1-344 amino acids); GST (N); purchased Carna Biosciences 05-102
Method: To measure inhibitor activity of Aurora B inhibitors in the Caliper Life Sciences LC3000, a TTP Mosquito liquid handling instrument was used to place 0.25 ul of the appropriate concentration of inhibitor in 100% DMSO (for a dose response curve calculation) into each well of a 384-well plate. To this reaction components was added to a final volume of 25 ul: • 0.1 ng/ul GST-Aurora B (1-344 amino acids), (Carna Biosciences 05-102. N-terminal GST fusion with His tagged INCEP, accession number Q96GD4). • 10 uM ATP (Fluka, 02055) • 1 mM DTT (Sigma, D0632) • 1 mM MgCl2 (Sigma, M1028) • 1 uM substrate peptide (sequence FITC-LRRASLG-(CONH2), synthesized by Tufts Peptide Synthesis service. • 100 mM HEPES pH 7.5 (Calbiochem, 391338) • 0.015% Brij-35 (Sigma, B4184)
as §1
The plate was read on a Caliper LC 3000 in an Off-Chip mobility shift assay format, using the following parameters for a 12-sipper chip: screening pressure −1.8 psi, upstream voltage −2700, downstream voltage −1000. These conditions caused unphosphorylated substrate and phosphorylated product peptide to resolve as separate peaks allowing direct measurement of percentage of conversion of substrate to product. The percent conversion was plotted against concentration of inhibitor to produce a sigmoidal dose response curve, from which an IC50 was calculated using XLFit for Microsoft Excel.

T2 sequence (P31749 whole entry): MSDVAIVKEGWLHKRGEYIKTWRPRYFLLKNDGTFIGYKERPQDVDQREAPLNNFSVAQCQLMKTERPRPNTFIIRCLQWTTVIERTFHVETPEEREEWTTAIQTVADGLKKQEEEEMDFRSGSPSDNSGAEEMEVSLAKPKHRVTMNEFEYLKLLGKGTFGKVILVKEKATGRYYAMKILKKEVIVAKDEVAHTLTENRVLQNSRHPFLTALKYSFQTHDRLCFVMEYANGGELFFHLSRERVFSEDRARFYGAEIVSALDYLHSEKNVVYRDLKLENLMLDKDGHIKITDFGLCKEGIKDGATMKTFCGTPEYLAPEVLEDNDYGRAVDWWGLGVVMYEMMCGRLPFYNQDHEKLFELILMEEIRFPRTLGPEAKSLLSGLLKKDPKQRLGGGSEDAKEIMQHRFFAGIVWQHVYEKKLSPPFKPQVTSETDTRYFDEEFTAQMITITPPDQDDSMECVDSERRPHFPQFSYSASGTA
T1 sequence (P23443 1-421 T412E limits assumed): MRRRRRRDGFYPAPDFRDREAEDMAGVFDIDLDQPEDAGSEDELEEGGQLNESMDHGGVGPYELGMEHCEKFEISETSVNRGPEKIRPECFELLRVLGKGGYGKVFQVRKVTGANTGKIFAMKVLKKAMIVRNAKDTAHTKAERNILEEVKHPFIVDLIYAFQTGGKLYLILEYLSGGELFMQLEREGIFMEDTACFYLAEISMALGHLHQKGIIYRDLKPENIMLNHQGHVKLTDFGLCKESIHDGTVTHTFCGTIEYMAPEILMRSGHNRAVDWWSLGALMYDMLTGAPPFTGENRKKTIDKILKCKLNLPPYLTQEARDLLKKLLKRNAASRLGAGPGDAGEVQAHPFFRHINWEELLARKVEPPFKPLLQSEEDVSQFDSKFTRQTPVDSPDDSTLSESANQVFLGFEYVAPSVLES
T3 sequence (Q96GD4 whole entry, the tested form may be a part): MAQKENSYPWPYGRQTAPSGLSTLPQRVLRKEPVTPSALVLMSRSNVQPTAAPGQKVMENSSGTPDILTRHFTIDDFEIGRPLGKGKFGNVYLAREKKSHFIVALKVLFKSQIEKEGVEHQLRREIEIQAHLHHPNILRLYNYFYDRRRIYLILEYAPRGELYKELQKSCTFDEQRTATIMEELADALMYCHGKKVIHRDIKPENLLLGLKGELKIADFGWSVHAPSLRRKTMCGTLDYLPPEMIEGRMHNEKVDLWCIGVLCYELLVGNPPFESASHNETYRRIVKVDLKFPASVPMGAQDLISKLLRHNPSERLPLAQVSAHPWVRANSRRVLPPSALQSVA
T3 sequence (Q9NQS7 803-918 partner limits assumed): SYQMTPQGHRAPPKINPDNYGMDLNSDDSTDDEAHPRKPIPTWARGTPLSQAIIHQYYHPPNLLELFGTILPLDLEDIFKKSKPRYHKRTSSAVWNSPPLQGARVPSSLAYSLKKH

IC50 (P70S6K (T412E mutant))	IC50 (pS6 MDA-MB-468)	IC50 (Akt1)	IC50 (Aurora B)	Compound
3.3 nM	246 nM	83 nM	650 nM	N#Cc1cc([C@@H](CN2CCC2)Nc2ncnc3c(C(N)=O)cccc23)ccc1F [Example 39, 4-[(S)-2-Azetidin-1-yl-1-(3-cyano-4-fluorophenyl)-ethylamino]-quinazoline-8-carboxylic acid amide]
0.8 nM	10 nM	17 nM	260 nM	NC(=O)c1cccc2c(N[C@H](CN3CCC3)c3ccc(C(F)(F)F)cc3)ncnc12 [Example 9, 4-[(S)-2-Azetidin-1-yl-1-(4-trifluoromethylphenyl)-ethylamino]-quinazoline-8-carboxylic acid amide]
2.3 nM	8 nM	3.7 nM	130 nM	NC(=O)c1cccc2c(N[C@H](CN3CCC3)c3ccc(C(F)(F)F)c(Cl)c3)ncnc12 [Example 17, 4-[(S)-2-Azetidin-1-yl-1-(3-chloro-4-trifluoromethylphenyl)-ethylamino]-quinazoline-8-carboxylic acid amide]
3.8 nM	85 nM	36 nM	220 nM	NC(=O)c1cccc2c(N[C@H](CN3CCC3)c3cc(F)c(F)cc3F)ncnc12 [Example 18, 4-[(S)-2-Azetidin-1-yl-1-(2,4,5-trifluorophenyl)-ethylamino]-quinazoline-8-carboxylic acid amide]
2.2 nM	27 nM	1.5 nM	200 nM	COc1cc(C(N)=O)c2ncnc(N[C@H](CN3CCC3)c3ccc(F)c(C(F)(F)F)c3)c2c1 [Example 47, 4-[(S)-2-Azetidin-1-yl-1-(4-fluoro-3-trifluoromethyl-phenyl)-ethylamino]-6-methoxy-quinazoline-8-carboxylic acid amide]
1.7 nM	41 nM	7.3 nM	75 nM	NC(=O)c1cccc2c(N[C@H](CN3CCC3)c3ccc(F)c(C(F)F)c3)ncnc12 [Example 44, 4-[(S)-2-Azetidin-1-yl-1-(3-difluoromethyl-4-fluoro-phenyl)-ethylamino]-quinazoline-8-carboxylic acid amide]
1.2 nM	74 nM	4.1 nM	56 nM	NC(=O)c1cccc2c(N[C@H](CN3CCC3)c3ccc(F)c(F)c3)ncnc12 [Example 4, 4-[(S)-2-Azetidin-1-yl-1-(3,4-difluorophenyl)-ethylamino]-quinazoline-8-carboxylic acid amide]
4.9 nM	427 nM	7.5 nM	390 nM	CC1CN(C[C@@H](Nc2ncnc3c(C(N)=O)cccc23)c2ccc(F)c(C(F)(F)F)c2)C1 [Example 46, 4-[(S)-1-(4-Fluoro-3-trifluoromethyl-phenyl)-2-(3-methyl-azetidin-1-yl)-ethylamino]-quinazoline-8-carboxylic acid amide]

The remaining lines, values behind:

Compound	IC50 (P70S6K (T412E mutant))	IC50 (pS6 MDA-MB-468)	IC50 (Akt1)	IC50 (Aurora B)
N#Cc1cccc([C@@H](CN2CCC2)Nc2ncnc3c(C(N)=O)cccc23)c1 [Example 11, 4-[(S)-2-Azetidin-1-yl-1-(3-cyanophenyl)-ethylamino]-quinazoline-8-carboxylic acid amide]	3.3 nM	382 nM	270 nM	690 nM
COc1cccc([C@@H](CN2CCC2)Nc2ncnc3c(C(N)=O)cccc23)c1 [Example 12, 4-[(S)-2-Azetidin-1-yl-1-(3-methoxyphenyl)-ethylamino]-quinazoline-8-carboxylic acid amide]	4.4 nM	204 nM	250 nM	67 nM
NC(=O)c1cccc2c(N[C@H](CN3CCC3)c3ccc(F)c(C(F)(F)F)c3)ncnc12 [Example 31, 4-[(S)-2-Azetidin-1-yl-1-(4-fluoro-3-trifluoromethyl-phenyl)-ethylamino]-quinazoline-8-carboxylic acid amide]	2.4 nM	28 nM	7.3 nM	285 nM
NC(=O)c1cc(F)cc2c(N[C@H](CN3CCC3)c3ccc(F)c(C(F)(F)F)c3)ncnc12 [Example 45, 4-[(S)-2-Azetidin-1-yl-1-(4-fluoro-3-trifluoromethyl-phenyl)-ethylamino]-6-fluoro-quinazoline-8-carboxylic acid amide]	1.5 nM	33 nM	5.9 nM	290 nM
NC(=O)c1cccc2c(N[C@H](CN3CCC3)c3cccc(Br)c3)ncnc12 [Example 13, 4-[(S)-2-Azetidin-1-yl-1-(3-bromophenyl)-ethylamino]-quinazoline-8-carboxylic acid amide]	0.3 nM	25 nM	5 nM	17 nM
NC(=O)c1cccc2c(N[C@H](CN3CCC3)c3cc(F)ccc3F)ncnc12 [Example 26, 4-[(S)-2-Azetidin-1-yl-1-(2,5-di-fluoro-phenyl)-ethylamino]-quinazoline-8-carboxylic acid amide]	5.3 nM	359 nM	98 nM	230 nM
NC(=O)c1cccc2c(N[C@H](CN3CCC3)c3cccc(Cl)c3)ncnc12 [Example 2, 4-[(S)-2-Azetidin-1-yl-1-(3-chlorophenyl)-ethylamino]-quinazoline-8-carboxylic acid amide]	1.1 nM	16 nM	10 nM	47 nM
